Data: patent publication US20250163104A1, “MACROCYCLIC IMMUNOMODULATORS” (priority 2021, published 2025)
Where a SMILES comes first, the peptide text is derived from it. Bridges are numbered along the chain shown (N, C = ends). [ ]: non-standard residue; d: D form. The star is where a group is joined. ξ: configuration not given here. Bip(3'-COOH) = N[C@@H](Cc1ccc(-c2cccc(C(=O)O)c2)cc1)C(=O)O; Phe(3-CF3) = N[C@@H](Cc1cccc(C(F)(F)F)c1)C(=O)O; Tyr(3,5-F2) = N[C@@H](Cc1cc(F)c(O)c(F)c1)C(=O)O; Phe(4-COOH) = N[C@@H](Cc1ccc(C(=O)O)cc1)C(=O)O; Bip = N[C@@H](Cc1ccc(-c2ccccc2)cc1)C(=O)O; Phe(4-CN) = N#Cc1ccc(C[C@H](N)C(=O)O)cc1; Phe(3-Me) = Cc1cccc(C[C@H](N)C(=O)O)c1; Val(3-OH) = CC(C)(O)[C@H](N)C(=O)O; 4Pal = N[C@@H](Cc1ccncc1)C(=O)O; Cha = N[C@@H](CC1CCCCC1)C(=O)O; Cit = NC(=O)NCCC[C@H](N)C(=O)O; Ile(3ξ) = CCC(C)[C@H](N)C(=O)O; Thr(3ξ) = CC(O)[C@H](N)C(=O)O; Carboxymethyl = O=C(O)C*; Nle = CCCC[C@H](N)C(=O)O; Orn = NCCC[C@H](N)C(=O)O; Dab = NCC[C@H](N)C(=O)O; Dap = NC[C@H](N)C(=O)O

molecular target: T1, human PD-1 / PD-L1-Ig binding on Jurkat cell line over-expressing human PD-1 (Jurkat-PD-1) (Homo sapiens, UniProt Q15116); assay: Jurkat-PD-1 Cell Binding High-Content Screening Assay (CBA); assay type: cell-based; conditions: Jurkat-PD-1 cells, PE-labeled PD-L1-Ig 20 nM final; read-out: Jurkat HPD1_PDL1 IC50
T1 construct: expressed in transfected cells; host or cells: Jurkat
T1 sequence (Q15116 25-288): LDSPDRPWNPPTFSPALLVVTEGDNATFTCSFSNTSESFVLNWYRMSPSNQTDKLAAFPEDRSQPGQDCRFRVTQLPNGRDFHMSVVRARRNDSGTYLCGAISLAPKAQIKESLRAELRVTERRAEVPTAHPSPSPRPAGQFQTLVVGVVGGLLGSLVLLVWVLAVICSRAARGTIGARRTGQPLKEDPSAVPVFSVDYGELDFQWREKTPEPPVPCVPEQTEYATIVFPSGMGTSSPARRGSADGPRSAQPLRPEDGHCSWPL
In short: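 Binding of fluorescent PD-L1-Ig (phycoerythrin linked via the Ig tag, 20 nM final) to PD-1-overexpressing Jurkat cells was imaged after a 2 h, 37° C compound pretreatment and 1 hour ligand incubation.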

SMILES | IC50 [nM]
CC[C@H](C)[C@@H]1NC(=O)[C@H](Cc2ccc(-c3ccccc3)cc2)NC(=O)[C@H](C(C)C)NC(=O)[C@H](Cc2c[nH]c3ccccc23)NC(=O)[C@H](CC(=O)O)NC(=O)[C@H](Cc2ccc(O)cc2)NC(=O)[C@H](Cc2ccc(OCC(=O)O)cc2)NC(=O)CSC[C@@H](C(=O)N[C@@H](C)C(N)=O)NC(=O)[C@H]([C@@H](C)O)NC(=O)[C@H](C(C)C)NC(=O)[C@H](CC2CCCCC2)NC(=O)[C@H](CCCNC(=N)N)NC(=O)[C@@H](CC(C)C)NC(=O)[C@H](CCCN)NC1=O [Compound 1146] ({CH2CO}-Y(Carboxymethyl)YDWV[Bip]I[Orn][dL]R[Cha]VTCA-NH2; thioether N-14) | 42.3
Cc1cccc(C[C@@H]2NC(=O)[C@H](CC(=O)O)NC(=O)[C@H](Cc3ccc(C#N)cc3)NC(=O)[C@H](C(C)O)NC(=O)CSC[C@@H](C(=O)N[C@@H](CCN)C(N)=O)NC(=O)[C@H](Cc3c[nH]cn3)NC(=O)[C@H](C(C)(C)O)NC(=O)[C@H](CC3CCCCC3)NC(=O)[C@H](CCN)NC(=O)[C@@H](CC(C)C)NC(=O)[C@H](CCCN)NC(=O)[C@H](Cc3ccc(OCC(=O)O)cc3)NC(=O)[C@H](Cc3ccc(-c4ccccc4)cc3)NC(=O)[C@H](Cc3ccc(OCC(=O)O)cc3)NC2=O)c1 (stereo partly drawn) [Compound 2673] ({CH2CO}-[Thr(3ξ)][Phe(4-CN)]D[Phe(3-Me)]Y(Carboxymethyl)[Bip]Y(Carboxymethyl)[Orn][dL][Dab][Cha][Val(3-OH)]HC[Dab]-NH2; thioether N-14) | 5.8
Cc1cccc(C[C@@H]2NC(=O)[C@H](CC(=O)O)NC(=O)[C@H](Cc3ccc(OCC(=O)O)cc3)NC(=O)[C@H](CCCNC(=N)N)NC(=O)CSC[C@@H](C(=O)N[C@@H](CO)C(N)=O)NC(=O)[C@H](CO)NC(=O)[C@H](C(C)C)NC(=O)[C@H](CC3CCCCC3)NC(=O)[C@H](CCCNC(=N)N)NC(=O)[C@@H](CC(C)C)NC(=O)[C@H](CCCN)NC(=O)[C@H](CCCNC(N)=O)NC(=O)[C@H](Cc3ccc(-c4ccccc4)cc3)NC(=O)[C@H](C(C)C)NC2=O)c1 [Compound 2597] ({CH2CO}-RY(Carboxymethyl)D[Phe(3-Me)]V[Bip][Cit][Orn][dL]R[Cha]VSCS-NH2; thioether N-14) | 12.9
CC(C)C[C@H]1NC(=O)[C@H](CCCN)NC(=O)[C@H](C(C)C)NC(=O)[C@H](Cc2ccc(-c3ccccc3)cc2)NC(=O)[C@H](C(C)C)NC(=O)[C@H](Cc2cc(F)c(O)c(F)c2)NC(=O)[C@H](CC(=O)O)NC(=O)[C@H](Cc2ccc(OCC(=O)O)cc2)NC(=O)[C@H](CN)NC(=O)CSC[C@@H](C(=O)N[C@@H](CCN)C(N)=O)NC(=O)[C@H](CCCCN)NC(=O)[C@H](C(C)C)NC(=O)[C@H](CC2CCCCC2)NC(=O)[C@H](CCN)NC1=O [Compound 2034] ({CH2CO}-[Dap]Y(Carboxymethyl)D[Tyr(3,5-F2)]V[Bip]V[Orn][dL][Dab][Cha]VKC[Dab]-NH2; thioether N-14) | 84.1
Cc1cccc(C[C@@H]2NC(=O)[C@H](CC(=O)O)NC(=O)[C@H](Cc3ccc(OCC(=O)O)cc3)NC(=O)[C@H](Cc3ccncc3)NC(=O)CSC[C@@H](C(=O)N[C@@H](CCN)C(N)=O)NC(=O)[C@H](CCC(=O)O)NC(=O)[C@H](C(C)(C)O)NC(=O)[C@H](CC3CCCCC3)NC(=O)[C@H](CCN)NC(=O)[C@@H](CC(C)C)NC(=O)[C@H](CCCN)NC(=O)[C@H](Cc3ccc(C(=O)O)cc3)NC(=O)[C@H](Cc3ccc(-c4ccccc4)cc3)NC(=O)[C@H](Cc3ccc(C(=O)O)cc3)NC2=O)c1 [Compound 2677] ({CH2CO}-[4Pal]Y(Carboxymethyl)D[Phe(3-Me)][Phe(4-COOH)][Bip][Phe(4-COOH)][Orn][dL][Dab][Cha][Val(3-OH)]EC[Dab]-NH2; thioether N-14) | 6
CC(C)C[C@H]1NC(=O)[C@H](CCCN)NC(=O)[C@H](CCCNC(N)=O)NC(=O)[C@H](Cc2ccc(-c3ccccc3)cc2)NC(=O)[C@H](C(C)C)NC(=O)[C@H](Cc2c[nH]c3ccccc23)NC(=O)[C@H](CC(=O)O)NC(=O)[C@H](Cc2ccc(OCC(=O)O)cc2)NC(=O)[C@H](Cc2ccc(OCC(=O)O)cc2)NC(=O)CSC[C@@H](C(=O)N[C@@H](C)C(N)=O)NC(=O)[C@H]([C@@H](C)O)NC(=O)[C@H](C(C)C)NC(=O)[C@H](Cc2ccccc2)NC(=O)[C@H](CCN)NC1=O [Compound 1665] ({CH2CO}-Y(Carboxymethyl)Y(Carboxymethyl)DWV[Bip][Cit][Orn][dL][Dab]FVTCA-NH2; thioether N-14) | 17
CCCC[C@@H]1NC(=O)CSC[C@@H](C(=O)N[C@@H](CCN)C(N)=O)NC(=O)[C@H](CO)NC(=O)[C@H](C(C)(C)O)NC(=O)[C@H](CC2CCCCC2)NC(=O)[C@H](CCN)NC(=O)[C@@H](CC(C)C)NC(=O)[C@H](CCCN)NC(=O)[C@H](Cc2ccc(C(=O)O)cc2)NC(=O)[C@H](Cc2ccc(-c3ccccc3)cc2)NC(=O)[C@H](Cc2ccc(C(=O)O)cc2)NC(=O)[C@H](Cc2cccc(C(F)(F)F)c2)NC(=O)[C@H](CC(=O)O)NC(=O)[C@H](Cc2ccc(OCC(=O)O)cc2)NC1=O [Example 2713] ({CH2CO}-[Nle]Y(Carboxymethyl)D[Phe(3-CF3)][Phe(4-COOH)][Bip][Phe(4-COOH)][Orn][dL][Dab][Cha][Val(3-OH)]SC[Dab]-NH2; thioether N-14) | 0.7
CCNC(=O)[C@H](C)NC(=O)[C@@H]1CSCC(=O)N[C@@H](CN)C(=O)N[C@@H](Cc2ccc(OCC(=O)O)cc2)C(=O)N[C@@H](CC(=O)O)C(=O)N[C@@H](Cc2cccc(C)c2)C(=O)N[C@@H](C(C)C)C(=O)N[C@@H](Cc2ccc(-c3ccccc3)cc2)C(=O)N[C@@H](CCCNC(N)=O)C(=O)N[C@@H](CCCN)C(=O)N[C@H](CC(C)C)C(=O)N[C@@H](CCN)C(=O)N[C@@H](CC2CCCCC2)C(=O)N[C@@H](C(C)C)C(=O)N[C@@H](CN)C(=O)N1 [Compound 2015] ({CH2CO}-[Dap]Y(Carboxymethyl)D[Phe(3-Me)]V[Bip][Cit][Orn][dL][Dab][Cha]V[Dap]CA-NHEt; thioether N-14) | 10.5
CCCC[C@@H]1NC(=O)[C@H](CCN)NC(=O)[C@@H](CC(C)C)NC(=O)[C@H](CCCN)NC(=O)[C@H](CCCNC(N)=O)NC(=O)[C@H](Cc2ccc(-c3ccccc3)cc2)NC(=O)[C@H](CC(C)C)NC(=O)[C@H](Cc2cccc(C)c2)NC(=O)[C@H](CC(=O)O)NC(=O)[C@H](Cc2ccc(OCC(=O)O)cc2)NC(=O)[C@H](CN)NC(=O)CSC[C@@H](C(=O)N[C@@H](C)C(N)=O)NC(=O)[C@H]([C@@H](C)O)NC(=O)[C@H](C(C)C)NC1=O [Compound 1295] ({CH2CO}-[Dap]Y(Carboxymethyl)D[Phe(3-Me)]L[Bip][Cit][Orn][dL][Dab][Nle]VTCA-NH2; thioether N-14) | 9.8
CC(C)C[C@@H]1NC(=O)[C@H](C(C)C)NC(=O)[C@H](CC2CCCCC2)NC(=O)[C@H](CCN)NC(=O)[C@@H](CC(C)C)NC(=O)[C@H](CCCN)NC(=O)[C@H](CCCNC(N)=O)NC(=O)[C@H](Cc2ccc(-c3ccccc3)cc2)NC(=O)[C@H](C(C)C)NC(=O)[C@H](Cc2c[nH]c3ccccc23)NC(=O)[C@H](CC(=O)O)NC(=O)[C@H](Cc2ccc(OCC(=O)O)cc2)NC(=O)[C@H](CN)NC(=O)CSC[C@@H](C(=O)N[C@@H](C)C(N)=O)NC1=O [Compound 1321] ({CH2CO}-[Dap]Y(Carboxymethyl)DWV[Bip][Cit][Orn][dL][Dab][Cha]VLCA-NH2; thioether N-14) | 78.6

Continued by falling IC50, values first:

IC50 [nM] | SMILES
50.1 | CCC(C)[C@@H]1NC(=O)[C@H](Cc2ccc(-c3ccccc3)cc2)NC(=O)[C@H](C(C)C)NC(=O)[C@H](Cc2c[nH]c3ccccc23)NC(=O)[C@H](CC(=O)O)NC(=O)[C@H](Cc2ccc(-c3cccc(C(=O)O)c3)cc2)NC(=O)[C@H](Cc2ccccc2)NC(=O)CSC[C@@H](C(=O)N[C@@H](C)C(N)=O)NC(=O)[C@H]([C@@H](C)O)NC(=O)[C@H](C(C)C)NC(=O)[C@H](CC2CCCCC2)NC(=O)[C@H](CCN)NC(=O)[C@@H](CC(C)C)NC(=O)[C@H](CCCN)NC1=O (stereo partly drawn) [Compound 2218] ({CH2CO}-F[Bip(3'-COOH)]DWV[Bip][Ile(3ξ)][Orn][dL][Dab][Cha]VTCA-NH2; thioether N-14)
41.3 | CC(C)C[C@H]1NC(=O)[C@H](CCCN)NC(=O)[C@H](CCC(=O)O)NC(=O)[C@H](Cc2ccc(-c3ccccc3)cc2)NC(=O)[C@H](C(C)C)NC(=O)[C@H](Cc2cc(F)c(F)c(F)c2)NC(=O)[C@H](CC(=O)O)NC(=O)[C@H](Cc2ccc(OCC(=O)O)cc2)NC(=O)[C@H](CN)NC(=O)CSC[C@@H](C(=O)N[C@@H](C)C(N)=O)NC(=O)[C@H]([C@@H](C)O)NC(=O)[C@H](C(C)C)NC(=O)[C@H](CC2CCCCC2)NC(=O)[C@H](CCN)NC1=O [Compound 2149]
30.3 | CC(C)C[C@H]1NC(=O)[C@H](CCCN)NC(=O)[C@H](C(C)C)NC(=O)[C@H](Cc2ccc(-c3ccccc3)cc2)NC(=O)[C@H](C(C)C)NC(=O)[C@H](Cc2cccc(C(F)(F)F)c2)NC(=O)[C@H](CC(=O)O)NC(=O)[C@H](Cc2ccc(OCC(=O)O)cc2)NC(=O)[C@H](CN)NC(=O)CSC[C@@H](C(=O)N[C@@H](C)C(N)=O)NC(=O)[C@H]([C@@H](C)O)NC(=O)[C@H](C(C)C)NC(=O)[C@H](CC2CCCCC2)NC(=O)[C@H](CCN)NC1=O [Compound 1576]
18.4 | Cc1cccc(C[C@@H]2NC(=O)[C@H](CC(=O)O)NC(=O)[C@H](Cc3ccc(C(=O)O)cc3)NC(=O)[C@H](Cc3ccncc3)NC(=O)CSC[C@@H](C(=O)N[C@@H](CCN)C(N)=O)NC(=O)[C@H]([C@@H](C)O)NC(=O)[C@H](C(C)C)NC(=O)[C@H](CC3CCCCC3)NC(=O)[C@H](CCN)NC(=O)[C@@H](CC(C)C)NC(=O)[C@H](CCCN)NC(=O)[C@H](Cc3ccc(O)cc3)NC(=O)[C@H](Cc3ccc(-c4ccccc4)cc3)NC(=O)[C@H](C(C)C)NC2=O)c1 [Compound 2292] ({CH2CO}-[4Pal][Phe(4-COOH)]D[Phe(3-Me)]V[Bip]Y[Orn][dL][Dab][Cha]VTC[Dab]-NH2; thioether N-14)
